# US20090247519A1, “AMINO-ETHYL-AMINO-ARYL (AEAA) COMPOUNDS AND THEIR USE” (priority 2006, published 2009)
# Molecular target: T1, Human full length PKD2 (Homo sapiens, UniProt Q9BZL6)
# T1 construct: Human full length PKD2 at ˜100 μg/mL was purchased from Upstate Ltd; purchased Upstate Ltd 14-506
# T1 sequence (Q9BZL6 1-878): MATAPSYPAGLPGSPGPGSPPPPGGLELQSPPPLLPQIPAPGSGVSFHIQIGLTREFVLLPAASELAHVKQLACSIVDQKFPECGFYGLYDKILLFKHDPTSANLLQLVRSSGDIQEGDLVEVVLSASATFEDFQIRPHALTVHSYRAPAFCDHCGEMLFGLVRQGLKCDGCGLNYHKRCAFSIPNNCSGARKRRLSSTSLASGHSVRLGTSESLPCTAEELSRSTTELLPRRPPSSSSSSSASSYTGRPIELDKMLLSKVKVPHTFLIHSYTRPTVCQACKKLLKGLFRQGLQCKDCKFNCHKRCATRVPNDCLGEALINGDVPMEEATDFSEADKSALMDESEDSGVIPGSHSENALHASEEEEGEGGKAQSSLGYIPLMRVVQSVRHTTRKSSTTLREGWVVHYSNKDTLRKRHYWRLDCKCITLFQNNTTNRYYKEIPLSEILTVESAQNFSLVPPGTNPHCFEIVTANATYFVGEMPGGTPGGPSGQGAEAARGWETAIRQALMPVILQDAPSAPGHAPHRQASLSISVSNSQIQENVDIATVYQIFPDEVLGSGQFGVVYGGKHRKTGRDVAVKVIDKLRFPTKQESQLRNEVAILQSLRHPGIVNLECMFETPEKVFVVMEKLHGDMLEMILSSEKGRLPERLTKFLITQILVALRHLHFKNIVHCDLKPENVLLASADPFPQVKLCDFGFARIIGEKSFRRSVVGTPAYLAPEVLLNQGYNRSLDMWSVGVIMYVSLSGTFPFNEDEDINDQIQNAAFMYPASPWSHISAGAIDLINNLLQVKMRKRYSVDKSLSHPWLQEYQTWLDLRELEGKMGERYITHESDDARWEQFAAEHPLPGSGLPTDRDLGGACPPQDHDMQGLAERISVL
# Test: PKD2 (Human Full Length) Enzyme Activity Assay (IMAP fluorescence polarisation)
# Type: biochemical
# Conditions: 10 point dose-response
# Procedure: PKD2 (Human Full Length) Enzyme Activity Assay
# Kinase Assay Reaction Buffer: This consisted of 0.22 μM filtered 25 mM HEPES and 10 mM MgCl2 pH 7.5.
# Kinase: Human full length PKD2 at ˜100 μg/mL was purchased from Upstate Ltd (Product code 14-506), and obtained from aliquots stored at −70° C. It was prepared with a final concentration of […] by diluting 1:300 in Reaction Buffer (30 μL per 9 mL-5 mL per plate with an additional 4 mL dead volume) and vortexing prior to use. It is necessary to check this concentration regularly in case of enzyme degradation. […]
# 5 μL Kinase/Substrate in Reaction Buffer was added to ‘test’ and all ‘control’ wells of a Corning black low binding 384 well (90 μL volume) microplate to give 0.1 μg/mL and 2 μM reaction concentration respectively. […] The fluorescence polarisation of the peptide substrate was measured using an analyst (Molecular devices) microplate reader with a single read at Ex485 Em535 (Analyst settings: Z Height 5 mm, G Factor 0.95, Reads/well 1, Integration 100000 μs, Gain Sensitivity 2).
# Percentage inhibition was calculated based on activity of the test sample minus the average values in the blank wells relative to the average values measured in control wells minus the average values in the blank wells.
# IC50 values were calculated from 10 point dose sigmoid ‘dose-response’ curves using XIfit software (IDBS inc, USA). […]
compound,measurement,value
"CC[C@@H](N)CN(C)c1ccnc(-c2cc(Cl)ccc2O)n1 [XX-276, 2-{4-[((R)-2-Amino-butyl)-methyl-amino]-pyrimidin-2-yl}-4-chloro-phenol]",IC50,4.1 nM
